Literature values as cited in patent US20250161397A1, “PLANT BASED FORMULATION FOR FAST PAIN RELIEF AND PREPARATION METHOD” (ARJUNA NATURAL PRIVATE LIMITED, priority 2022, published 2025).

How the values were obtained:
[1] = biological target: T1, 5-LOX (Homo sapiens, UniProt P09917); conditions: literature
T1 sequence (P09917 1-674): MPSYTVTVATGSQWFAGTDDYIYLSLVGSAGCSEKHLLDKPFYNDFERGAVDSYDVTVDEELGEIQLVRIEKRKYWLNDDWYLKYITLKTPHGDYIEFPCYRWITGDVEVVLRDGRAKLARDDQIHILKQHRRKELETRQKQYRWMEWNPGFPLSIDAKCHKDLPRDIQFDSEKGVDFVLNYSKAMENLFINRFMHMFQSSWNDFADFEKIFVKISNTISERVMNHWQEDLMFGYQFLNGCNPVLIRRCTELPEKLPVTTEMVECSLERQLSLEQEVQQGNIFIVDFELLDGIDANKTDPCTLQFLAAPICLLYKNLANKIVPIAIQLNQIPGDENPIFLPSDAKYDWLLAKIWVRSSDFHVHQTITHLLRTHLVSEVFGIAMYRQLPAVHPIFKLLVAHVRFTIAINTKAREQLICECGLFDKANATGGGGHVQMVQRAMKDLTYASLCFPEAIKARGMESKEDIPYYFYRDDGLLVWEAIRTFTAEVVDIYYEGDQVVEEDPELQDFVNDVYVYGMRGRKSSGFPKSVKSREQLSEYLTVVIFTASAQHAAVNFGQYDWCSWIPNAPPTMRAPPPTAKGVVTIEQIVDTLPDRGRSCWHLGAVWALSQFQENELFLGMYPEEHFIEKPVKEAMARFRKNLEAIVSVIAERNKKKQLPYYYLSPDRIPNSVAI

[2] = test system: COX-1; conditions: Goel 2001
[3] = biological target: T2, 12/15 LOX (Rattus norvegicus, UniProt Q02759); conditions: in vitro, rat lung cytosolic fraction; Bezáková 2014
T2 construct: from tissue; host or cells: rat lung cytosolic fraction
T2 sequence (Q02759 1-663): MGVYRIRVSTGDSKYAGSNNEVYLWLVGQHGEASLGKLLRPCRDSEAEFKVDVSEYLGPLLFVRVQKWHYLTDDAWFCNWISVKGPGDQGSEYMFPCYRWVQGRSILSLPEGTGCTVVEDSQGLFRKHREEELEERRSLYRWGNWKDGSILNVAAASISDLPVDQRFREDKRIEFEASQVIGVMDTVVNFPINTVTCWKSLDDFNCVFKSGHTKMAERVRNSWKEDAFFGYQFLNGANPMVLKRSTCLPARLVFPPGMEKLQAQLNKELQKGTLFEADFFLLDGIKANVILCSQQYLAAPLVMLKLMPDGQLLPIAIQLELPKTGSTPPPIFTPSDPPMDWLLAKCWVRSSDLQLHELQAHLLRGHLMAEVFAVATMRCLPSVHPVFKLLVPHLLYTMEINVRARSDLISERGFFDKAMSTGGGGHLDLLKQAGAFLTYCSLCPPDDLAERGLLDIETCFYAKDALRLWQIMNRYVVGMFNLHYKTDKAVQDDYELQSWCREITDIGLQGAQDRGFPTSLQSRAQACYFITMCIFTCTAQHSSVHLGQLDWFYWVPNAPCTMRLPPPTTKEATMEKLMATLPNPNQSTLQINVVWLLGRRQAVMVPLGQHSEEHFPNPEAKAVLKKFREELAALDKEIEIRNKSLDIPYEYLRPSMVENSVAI

[4] = test system: COX-2; conditions: HT-29 human colon cancer cells; Goel 2001
[5] = biological target: T3, COX-2 (Homo sapiens, UniProt P35354); conditions: Siemoneit 2008
T3 sequence (P35354 18-604): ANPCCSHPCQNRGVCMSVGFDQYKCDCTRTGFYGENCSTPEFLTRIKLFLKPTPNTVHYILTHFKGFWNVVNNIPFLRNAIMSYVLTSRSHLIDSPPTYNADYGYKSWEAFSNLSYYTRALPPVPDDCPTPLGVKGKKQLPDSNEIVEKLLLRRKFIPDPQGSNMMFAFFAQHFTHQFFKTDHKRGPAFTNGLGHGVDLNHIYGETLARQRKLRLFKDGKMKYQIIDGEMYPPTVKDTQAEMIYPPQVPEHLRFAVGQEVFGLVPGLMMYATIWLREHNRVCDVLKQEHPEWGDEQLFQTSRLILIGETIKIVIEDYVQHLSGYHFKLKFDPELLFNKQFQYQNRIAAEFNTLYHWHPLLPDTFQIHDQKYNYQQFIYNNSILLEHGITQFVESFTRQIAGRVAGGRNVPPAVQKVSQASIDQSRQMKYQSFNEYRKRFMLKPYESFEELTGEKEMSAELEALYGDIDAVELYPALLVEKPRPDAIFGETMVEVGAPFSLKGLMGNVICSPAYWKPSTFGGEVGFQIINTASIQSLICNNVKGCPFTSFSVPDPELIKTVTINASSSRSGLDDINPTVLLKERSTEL

[6] = biological target: COX-1 (Homo sapiens, UniProt P23219); conditions: Siemoneit 2008
Sequence of COX-1 (Homo sapiens, UniProt P23219) (P23219 24-599): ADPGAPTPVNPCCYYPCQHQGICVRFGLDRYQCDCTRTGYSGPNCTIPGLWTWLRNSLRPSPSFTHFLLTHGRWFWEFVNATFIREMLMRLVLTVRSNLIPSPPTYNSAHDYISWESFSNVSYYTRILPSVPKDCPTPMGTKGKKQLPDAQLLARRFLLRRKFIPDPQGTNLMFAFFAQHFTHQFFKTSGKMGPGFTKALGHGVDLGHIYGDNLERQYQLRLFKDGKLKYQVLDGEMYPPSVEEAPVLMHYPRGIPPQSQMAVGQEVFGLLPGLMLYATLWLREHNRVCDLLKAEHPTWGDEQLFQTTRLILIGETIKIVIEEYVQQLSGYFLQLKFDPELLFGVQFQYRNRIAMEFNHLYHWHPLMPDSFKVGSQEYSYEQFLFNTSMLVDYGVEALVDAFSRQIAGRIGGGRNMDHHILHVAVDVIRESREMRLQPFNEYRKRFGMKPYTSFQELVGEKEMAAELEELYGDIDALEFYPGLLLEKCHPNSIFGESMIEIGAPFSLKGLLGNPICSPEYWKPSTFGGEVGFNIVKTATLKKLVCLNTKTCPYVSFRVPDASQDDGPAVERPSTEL

| Structure (SMILES) | inhibition of 5-LOX [1] | effect on mRNA and protein expression of COX-1 [2] | inhibition of 12/15 LOX [3] | effect on mRNA and protein expression of COX-2 [4] | inhibition of COX-2 [5] | inhibition of COX-1 [6] |
| --- | --- | --- | --- | --- | --- | --- |
| COc1cc(/C=C/C(=O)CC(=O)/C=C/c2ccc(O)c(OC)c2)ccc1O [Curcumin, curcumin] | bind to the active site of 5-LOX and inhibit its activity | not COX-1 | competitive inhibitor of 12/15 LOX | inhibit the mRNA and protein expression of COX-2 |  |  |
| CC(=O)O[C@@H]1CC[C@@]2(C)[C@@H](CC[C@]3(C)[C@@H]2C(=O)C=C2[C@@H]4[C@@H](C)[C@H](C)CC[C@]4(C)CC[C@]23C)[C@@]1(C)C(=O)O [AKBA, acetyl-11-keto-β-boswellic acid] | good inhibition of 5-LOX |  |  |  | less efficiently inhibited by AKBA as compared to COX-1 | reversible inhibition of COX-1 |
